Measurements from ChEMBL document CHEMBL2150990, “Substrate-like water soluble lipase inhibitors from Filipendula kamtschatica” (Bioorg Med Chem Lett, 2012).

Experiments:
[1] = target: T1, Pancreatic triacylglycerol lipase (Sus scrofa) (UniProt P00591); experiment: Inhibition of porcine pancreatic lipase using micellar solution of triolein as substrate at 1 mM preincubated for 5 mins before substrate addition measured after 30 mins
T1 sequence (whole entry): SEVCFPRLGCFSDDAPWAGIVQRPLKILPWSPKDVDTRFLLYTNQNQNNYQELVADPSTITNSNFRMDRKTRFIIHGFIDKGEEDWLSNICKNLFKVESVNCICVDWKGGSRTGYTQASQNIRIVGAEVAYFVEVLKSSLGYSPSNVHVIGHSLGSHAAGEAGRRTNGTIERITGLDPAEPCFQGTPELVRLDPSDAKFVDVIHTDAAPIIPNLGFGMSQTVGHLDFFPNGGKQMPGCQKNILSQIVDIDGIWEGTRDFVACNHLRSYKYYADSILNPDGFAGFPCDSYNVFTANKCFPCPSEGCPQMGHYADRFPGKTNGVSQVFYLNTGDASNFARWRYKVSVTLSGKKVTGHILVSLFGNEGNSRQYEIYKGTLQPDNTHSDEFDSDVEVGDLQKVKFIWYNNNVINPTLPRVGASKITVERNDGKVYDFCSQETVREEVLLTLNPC

[2] = target: T2, Pancreatic triacylglycerol lipase (Sus scrofa, UniProt P00591); experiment: Inhibition of porcine pancreatic lipase using micellar solution of triolein as substrate preincubated for 5 mins before substrate addition measured after 30 mins
T2 sequence (P00591 whole entry): T1 sequence (whole entry)

[3] = target: T1, Pancreatic triacylglycerol lipase (Sus scrofa); conditions: 0.4 uM
Description: Inhibition of porcine pancreatic lipase using micellar solution of triolein as substrate at 0.4 uM preincubated for 5 mins before substrate addition measured after 30 mins

SMILES: O=C(O)/C=C/c1ccc(O)c(O)c1 [CAFFEIC ACID]
- inhibition [1]: 13%
- IC50 [2]: > 1000 µM

SMILES: CCCCCCCCCCC[C@@H](C[C@@H]1OC(=O)[C@H]1CCCCCC)OC(=O)[C@H](CC(C)C)NC=O
- inhibition [3]: 55%

SMILES: O=c1c(O[C@@H]2O[C@H](CO)[C@H](O)[C@H](O)[C@H]2O[C@@H]2OC[C@@H](O)[C@H](O)[C@H]2O)c(-c2ccc(O)c(O)c2)oc2cc(O)cc(O)c12
- IC50 [2]: 300 µM

SMILES: O=C(O)c1cc(O)c(O)c(O)c1 [GALLIC ACID]
- inhibition [1]: 4%
- IC50 [2]: > 1000 µM

SMILES: O=C(/C=C/c1ccc(O)c(O)c1)O[C@@H](C(=O)O)[C@@H](O)COC(=O)c1cc(O)c(O)c(O)c1
- IC50 [2]: 246 µM

SMILES: O=C(O)[C@H](O)[C@@H](O)CO [L-THREONIC ACID]
- inhibition [1]: 30%
- IC50 [2]: > 1000 µM

SMILES: O=C(/C=C/c1ccc(O)c(O)c1)O[C@@H](COC(=O)c1cc(O)c(O)c(O)c1)[C@@H](O)C(=O)O
- IC50 [2]: 26 µM
